Twelve molecules from patent US12570675B2, “Boronic acid compounds” (LG CHEM, LTD., priority 2020, dated 2026) can be followed below.

In the test the target is Proteasome chymotrypsin-like activity (S26 protein from RPMI8226 cells) (Homo sapiens, UniProt P28074). The test is classed as biochemical. Conditions: S26 protein from RPMI8226 cell extract 2 ug/well, substrate 20 uM, 37° C., 90 minutes; read-out: Proteasome chymotrypsin-like activity inhibition IC50. In short, it runs like this:
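Fluorogenic AMC substrates (20 uM final) report chymotrypsin-like (Suc-Leu-Leu-Val-Tyr-AMC) or caspase-like (Z-Leu-Leu-Glu-AMC) cleavage by RPMI8226-derived S26 protein, 2 ug/well, pH 8.0 Tris lysate.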

Proteasome chymotrypsin-like activity (S26 protein from RPMI8226 cells), sequence (P28074 60-263 limits assumed): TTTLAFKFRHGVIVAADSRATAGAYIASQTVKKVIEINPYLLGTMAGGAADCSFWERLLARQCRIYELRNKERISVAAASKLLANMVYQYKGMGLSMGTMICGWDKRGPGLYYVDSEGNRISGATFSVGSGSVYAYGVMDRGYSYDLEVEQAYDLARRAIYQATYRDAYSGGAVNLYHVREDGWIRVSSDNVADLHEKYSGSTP

What is called IC50 is the concentration needed to halve the response being measured. In the case of `CC(C)C[C@H](NC(=O)[C@]1(C(C)C)CC(c2nccc3ccccc23)=NO1)B(O)O` [Example 13, ((R)-1-((R)-5-isopropyl-3-(isoquinolin-1-yl)-4,5-dihydroisoxazol-5-carboxamido)-3-methylbutyl)boronic acid], the IC50 was greater than 1000 nM.

In the case of `CC(C)C[C@H](NC(=O)C1CC(C2CCCCC2)=NO1)B(O)O` (stereo partly drawn) [Example 9, ((1R)-1-(3-cyclohexyl-4,5-dihydroisoxazol-5-carboxamido)-3-methylbutyl)boronic acid], the IC50 was less than 500 nM.

With `CC(C)C[C@H](NC(=O)C1(Cc2ccccc2)CC(COCc2cccc(-c3ccccc3)c2)=NO1)B(O)O` (stereo partly drawn) [Example 54, ((1R)-1-(3-(([1,1′-biphenyl]-3-ylmethoxy)methyl)-5-benzyl-4,5-dihydroisoxazol-5-carboxamido)-3-methylbutyl)boronic acid], the IC50 was less than 10 nM.

Take `Cc1cn2cccc(C(=O)NCC3=NOC(Cc4ccccc4)(C(=O)N[C@@H](CC(C)C)B(O)O)C3)c2n1` (stereo partly drawn) [Example 139, ((1R)-1-(5-benzyl-3-((2-methylimidazo[1,2-a]pyridin-8-carboxamido)methyl)-4,5-dihydroisoxazol-5-carboxamido)-3-methylbutyl)boronic acid]: the IC50 is less than 10 nM.

With `CC(C)C[C@H](NC(=O)C1(C)CC(c2ccccc2)=NO1)B(O)O` (stereo partly drawn) [Example 5, ((1R)-3-methyl-1-(5-methyl-3-phenyl-4,5-dihydroisoxazol-5-carboxamido)butyl)boronic acid], the concentration for half-maximal inhibition (IC50) is greater than 1000 nM.

With `CC(C)C[C@H](NC(=O)C1(Cc2ccccc2)CC(CNC(=O)c2ccnn2C)=NO1)B(O)O` (stereo partly drawn) [Example 176, ((1R)-1-(5-benzyl-3-((1-methyl-1H-pyrazol-5-carboxamido)methyl)-4,5-dihydroisoxazol-5-carboxamido)-3-methylbutyl)boronic acid], the IC50 is less than 25 nM.

As to `CC(C)C[C@H](NC(=O)C1(C(O)c2ccccc2)CC(CNC(=O)c2nccc3ccccc23)=NO1)B(O)O` (stereo partly drawn) [Example 131, ((1R)-1-(5-(hydroxy(phenyl)methyl)-3-((isoquinolin-1-carboxamido)methyl)-4,5-dihydroisoxazol-5-carboxamido)-3-methylbutyl)boronic acid], the concentration for half-maximal inhibition (IC50) was less than 10 nM.

Take `O=C(N[C@@H](Cc1ccccc1)B(O)O)C1(Cc2ccccc2)CC(COc2ccc3ccccc3c2)=NO1` (stereo partly drawn) [Example 263, ((1R)-1-(5-benzyl-3-((naphthalen-2-yloxy)methyl)-4,5-dihydroisoxazol-5-carboxamido)-2-phenylethyl)boronic acid]: the IC50 is less than 50 nM.

With `Cc1cccc(CC2(C(=O)N[C@@H](CC(C)C)B(O)O)CC(CNC(=O)c3cccn4ccnc34)=NO2)c1` (stereo partly drawn) [Example 238, ((1R)-1-(3-((imidazo[1,2-a]pyridin-8-carboxamido)methyl)-5-(3-methylbenzyl)-4,5-dihydroisoxazol-5-carboxamido)-3-methylbutyl)boronic acid], the IC50 is less than 10 nM.

With `CC(C)C[C@H](NC(=O)C1CC(c2ccc3ccccc3c2)=NO1)B(O)O` (stereo partly drawn) [Example 17, ((1R)-3-methyl-1-(3-(naphthalen-2-yl)-4,5-dihydroisoxazol-5-carboxamido)butyl)boronic acid], the IC50 was less than 500 nM.

`CC(C)C[C@H](NC(=O)C1(Cc2cc(F)cc(F)c2)CC(CNC(=O)c2nccc3ccccc23)=NO1)B(O)O` (stereo partly drawn) [Example 183, ((1R)-1-(5-(3,5-difluorobenzyl)-3-((isoquinolin-1-carboxamido)methyl)-4,5-dihydroisoxazol-5-carboxamido)-3-methylbutyl)boronic acid]: the IC50 is less than 10 nM.

In the case of `CC(C)C[C@H](NC(=O)C1CC(c2ccc(Oc3ccccc3)cc2)=NO1)B(O)O` (stereo partly drawn) [Example 44, ((1R)-3-methyl-1-(3-(4-phenoxyphenyl)-4,5-dihydroisoxazol-5-carboxamido)butyl)boronic acid], the IC50 is less than 500 nM.
